Measured values from patent publication US10670605B2, “Cysteine reactive probes and uses thereof” (The Scripps Research Institute, priority 2015, dated 2020).

Columns and labels:
Experiment in all cases: Competitive isoTOP-ABPP in situ (fragment-treated cells)
Type in all cases: cell-based
[1] = molecular target: T1, cysteines in MDA-MB-231 and Ramos cells (Homo sapiens, UniProt A0AVT1)
T1 sequence (A0AVT1 1-1052): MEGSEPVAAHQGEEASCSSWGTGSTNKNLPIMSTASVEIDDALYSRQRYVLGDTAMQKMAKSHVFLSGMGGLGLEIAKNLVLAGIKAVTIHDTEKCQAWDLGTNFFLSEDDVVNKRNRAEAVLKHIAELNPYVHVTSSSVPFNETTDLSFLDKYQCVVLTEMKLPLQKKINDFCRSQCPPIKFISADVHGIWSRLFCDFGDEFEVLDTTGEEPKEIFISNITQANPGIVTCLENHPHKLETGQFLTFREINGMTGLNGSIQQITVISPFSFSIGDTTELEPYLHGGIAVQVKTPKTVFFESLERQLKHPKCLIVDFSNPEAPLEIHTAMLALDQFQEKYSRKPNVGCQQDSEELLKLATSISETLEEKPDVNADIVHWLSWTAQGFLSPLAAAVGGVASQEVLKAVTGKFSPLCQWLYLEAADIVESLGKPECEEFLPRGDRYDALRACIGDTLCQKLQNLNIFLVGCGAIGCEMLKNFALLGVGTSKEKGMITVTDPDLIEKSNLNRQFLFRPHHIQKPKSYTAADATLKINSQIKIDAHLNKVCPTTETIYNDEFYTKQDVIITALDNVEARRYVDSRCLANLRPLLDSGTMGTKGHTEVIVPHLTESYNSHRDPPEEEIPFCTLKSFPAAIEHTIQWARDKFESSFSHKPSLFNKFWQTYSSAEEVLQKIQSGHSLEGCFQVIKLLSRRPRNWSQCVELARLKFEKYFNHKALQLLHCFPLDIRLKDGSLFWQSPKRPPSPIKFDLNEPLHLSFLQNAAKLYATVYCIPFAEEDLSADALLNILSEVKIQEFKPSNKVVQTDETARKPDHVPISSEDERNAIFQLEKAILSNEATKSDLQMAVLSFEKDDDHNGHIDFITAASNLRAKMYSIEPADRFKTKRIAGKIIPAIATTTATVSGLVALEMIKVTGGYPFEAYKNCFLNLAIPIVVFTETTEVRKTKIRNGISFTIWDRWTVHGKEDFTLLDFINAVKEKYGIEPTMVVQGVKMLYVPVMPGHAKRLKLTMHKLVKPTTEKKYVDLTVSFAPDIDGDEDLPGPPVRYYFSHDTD

[2] = molecular target: T2, cysteines in MDA-MB-231 and Ramos cells (Homo sapiens, UniProt Q96RS6)
T2 sequence (Q96RS6 1-583): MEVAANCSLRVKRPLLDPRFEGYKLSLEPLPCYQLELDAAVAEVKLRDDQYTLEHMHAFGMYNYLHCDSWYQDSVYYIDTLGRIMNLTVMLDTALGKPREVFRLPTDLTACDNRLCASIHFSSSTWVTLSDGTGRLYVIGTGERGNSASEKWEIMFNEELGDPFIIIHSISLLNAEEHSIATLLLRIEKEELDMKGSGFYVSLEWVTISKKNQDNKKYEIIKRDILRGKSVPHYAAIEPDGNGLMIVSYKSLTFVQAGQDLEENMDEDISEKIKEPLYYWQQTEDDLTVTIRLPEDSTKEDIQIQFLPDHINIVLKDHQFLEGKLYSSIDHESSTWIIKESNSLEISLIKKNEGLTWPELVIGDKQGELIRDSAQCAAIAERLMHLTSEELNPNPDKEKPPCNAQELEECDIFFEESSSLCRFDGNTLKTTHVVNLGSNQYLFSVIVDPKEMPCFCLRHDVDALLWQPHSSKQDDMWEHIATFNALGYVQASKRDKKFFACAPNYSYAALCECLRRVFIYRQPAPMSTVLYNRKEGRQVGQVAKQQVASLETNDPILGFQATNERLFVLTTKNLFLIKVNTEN

[3] = molecular target: T3, cysteines in MDA-MB-231 and Ramos cells (Homo sapiens, UniProt P51649); conditions: for isoTOP-ABPP ratio P51649_C340: 200 μM, insitu
T3 sequence (P51649 48-535): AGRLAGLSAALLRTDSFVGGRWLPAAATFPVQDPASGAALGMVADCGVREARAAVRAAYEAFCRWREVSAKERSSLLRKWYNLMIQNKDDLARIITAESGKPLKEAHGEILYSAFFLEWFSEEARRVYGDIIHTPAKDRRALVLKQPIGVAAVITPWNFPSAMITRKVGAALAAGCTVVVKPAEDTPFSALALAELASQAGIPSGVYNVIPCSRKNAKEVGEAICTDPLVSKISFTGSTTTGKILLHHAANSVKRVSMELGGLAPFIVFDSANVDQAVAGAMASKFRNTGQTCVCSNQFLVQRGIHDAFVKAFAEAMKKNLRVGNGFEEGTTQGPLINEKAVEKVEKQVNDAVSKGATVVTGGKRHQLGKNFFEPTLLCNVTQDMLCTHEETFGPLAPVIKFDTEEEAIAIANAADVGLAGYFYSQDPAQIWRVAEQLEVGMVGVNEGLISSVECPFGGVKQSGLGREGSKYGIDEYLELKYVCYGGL

[4] = molecular target: T4, cysteines in MDA-MB-231 and Ramos cells (Homo sapiens, UniProt Q15013); conditions: for isoTOP-ABPP ratio Q15013_C124: 200 μM, insitu, 231
T4 sequence (Q15013 1-274): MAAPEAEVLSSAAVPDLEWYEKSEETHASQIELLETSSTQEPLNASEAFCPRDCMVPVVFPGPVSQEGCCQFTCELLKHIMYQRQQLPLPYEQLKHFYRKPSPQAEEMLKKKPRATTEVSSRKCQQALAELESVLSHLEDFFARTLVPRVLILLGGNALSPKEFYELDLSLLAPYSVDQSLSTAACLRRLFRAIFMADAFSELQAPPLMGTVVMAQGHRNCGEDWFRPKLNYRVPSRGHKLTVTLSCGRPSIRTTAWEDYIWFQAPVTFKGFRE

[5] = molecular target: cysteines in MDA-MB-231 and Ramos cells (Homo sapiens, UniProt Q14790); conditions: for isoTOP-ABPP ratio Q14790_C360: 200 μM, insitu
Chain of cysteines in MDA-MB-231 and Ramos cells (Homo sapiens, UniProt Q14790) (Q14790 217-479): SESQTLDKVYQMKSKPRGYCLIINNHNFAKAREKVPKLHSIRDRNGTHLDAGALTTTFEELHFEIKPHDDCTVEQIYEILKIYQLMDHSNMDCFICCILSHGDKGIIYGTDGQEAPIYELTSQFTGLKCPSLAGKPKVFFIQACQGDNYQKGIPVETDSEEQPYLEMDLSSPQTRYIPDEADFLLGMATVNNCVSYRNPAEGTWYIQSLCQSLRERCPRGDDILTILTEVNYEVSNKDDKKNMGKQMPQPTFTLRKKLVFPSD

[6] = molecular target: cysteines in MDA-MB-231 and Ramos cells (Homo sapiens, UniProt P51812); conditions: 200 μM, insitu
Chain of cysteines in MDA-MB-231 and Ramos cells (Homo sapiens, UniProt P51812) (P51812 whole entry): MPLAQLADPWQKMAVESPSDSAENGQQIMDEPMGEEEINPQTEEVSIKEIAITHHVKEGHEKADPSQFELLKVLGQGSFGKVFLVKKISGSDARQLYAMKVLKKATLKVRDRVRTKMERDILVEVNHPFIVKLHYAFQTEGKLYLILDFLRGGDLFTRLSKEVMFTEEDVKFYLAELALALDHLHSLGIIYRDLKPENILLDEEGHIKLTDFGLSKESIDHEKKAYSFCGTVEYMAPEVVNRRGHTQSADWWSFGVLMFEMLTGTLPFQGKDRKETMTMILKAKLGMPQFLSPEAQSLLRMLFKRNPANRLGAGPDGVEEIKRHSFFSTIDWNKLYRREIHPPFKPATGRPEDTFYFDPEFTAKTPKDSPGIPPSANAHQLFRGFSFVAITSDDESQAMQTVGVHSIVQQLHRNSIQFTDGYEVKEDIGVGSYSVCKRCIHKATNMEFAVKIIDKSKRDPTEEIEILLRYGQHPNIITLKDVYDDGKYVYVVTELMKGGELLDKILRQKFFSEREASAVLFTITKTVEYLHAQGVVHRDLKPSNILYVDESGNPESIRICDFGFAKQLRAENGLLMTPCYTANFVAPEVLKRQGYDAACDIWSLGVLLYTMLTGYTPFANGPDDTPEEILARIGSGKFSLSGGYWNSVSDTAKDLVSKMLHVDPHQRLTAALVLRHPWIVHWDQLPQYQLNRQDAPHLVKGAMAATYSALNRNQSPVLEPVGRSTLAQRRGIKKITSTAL

[7] = molecular target: T5, cysteines in MDA-MB-231 and Ramos cells (Homo sapiens, UniProt O00244); conditions: 200 μM, insitu
T5 sequence (O00244 1-68): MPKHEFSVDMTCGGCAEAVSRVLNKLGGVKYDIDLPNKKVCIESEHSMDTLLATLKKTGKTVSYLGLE

[8] = molecular target: cysteines in MDA-MB-231 and Ramos cells (Homo sapiens, UniProt P51610); conditions: 200 μM, insitu, 231
Chain of cysteines in MDA-MB-231 and Ramos cells (Homo sapiens, UniProt P51610) (P51610 whole entry): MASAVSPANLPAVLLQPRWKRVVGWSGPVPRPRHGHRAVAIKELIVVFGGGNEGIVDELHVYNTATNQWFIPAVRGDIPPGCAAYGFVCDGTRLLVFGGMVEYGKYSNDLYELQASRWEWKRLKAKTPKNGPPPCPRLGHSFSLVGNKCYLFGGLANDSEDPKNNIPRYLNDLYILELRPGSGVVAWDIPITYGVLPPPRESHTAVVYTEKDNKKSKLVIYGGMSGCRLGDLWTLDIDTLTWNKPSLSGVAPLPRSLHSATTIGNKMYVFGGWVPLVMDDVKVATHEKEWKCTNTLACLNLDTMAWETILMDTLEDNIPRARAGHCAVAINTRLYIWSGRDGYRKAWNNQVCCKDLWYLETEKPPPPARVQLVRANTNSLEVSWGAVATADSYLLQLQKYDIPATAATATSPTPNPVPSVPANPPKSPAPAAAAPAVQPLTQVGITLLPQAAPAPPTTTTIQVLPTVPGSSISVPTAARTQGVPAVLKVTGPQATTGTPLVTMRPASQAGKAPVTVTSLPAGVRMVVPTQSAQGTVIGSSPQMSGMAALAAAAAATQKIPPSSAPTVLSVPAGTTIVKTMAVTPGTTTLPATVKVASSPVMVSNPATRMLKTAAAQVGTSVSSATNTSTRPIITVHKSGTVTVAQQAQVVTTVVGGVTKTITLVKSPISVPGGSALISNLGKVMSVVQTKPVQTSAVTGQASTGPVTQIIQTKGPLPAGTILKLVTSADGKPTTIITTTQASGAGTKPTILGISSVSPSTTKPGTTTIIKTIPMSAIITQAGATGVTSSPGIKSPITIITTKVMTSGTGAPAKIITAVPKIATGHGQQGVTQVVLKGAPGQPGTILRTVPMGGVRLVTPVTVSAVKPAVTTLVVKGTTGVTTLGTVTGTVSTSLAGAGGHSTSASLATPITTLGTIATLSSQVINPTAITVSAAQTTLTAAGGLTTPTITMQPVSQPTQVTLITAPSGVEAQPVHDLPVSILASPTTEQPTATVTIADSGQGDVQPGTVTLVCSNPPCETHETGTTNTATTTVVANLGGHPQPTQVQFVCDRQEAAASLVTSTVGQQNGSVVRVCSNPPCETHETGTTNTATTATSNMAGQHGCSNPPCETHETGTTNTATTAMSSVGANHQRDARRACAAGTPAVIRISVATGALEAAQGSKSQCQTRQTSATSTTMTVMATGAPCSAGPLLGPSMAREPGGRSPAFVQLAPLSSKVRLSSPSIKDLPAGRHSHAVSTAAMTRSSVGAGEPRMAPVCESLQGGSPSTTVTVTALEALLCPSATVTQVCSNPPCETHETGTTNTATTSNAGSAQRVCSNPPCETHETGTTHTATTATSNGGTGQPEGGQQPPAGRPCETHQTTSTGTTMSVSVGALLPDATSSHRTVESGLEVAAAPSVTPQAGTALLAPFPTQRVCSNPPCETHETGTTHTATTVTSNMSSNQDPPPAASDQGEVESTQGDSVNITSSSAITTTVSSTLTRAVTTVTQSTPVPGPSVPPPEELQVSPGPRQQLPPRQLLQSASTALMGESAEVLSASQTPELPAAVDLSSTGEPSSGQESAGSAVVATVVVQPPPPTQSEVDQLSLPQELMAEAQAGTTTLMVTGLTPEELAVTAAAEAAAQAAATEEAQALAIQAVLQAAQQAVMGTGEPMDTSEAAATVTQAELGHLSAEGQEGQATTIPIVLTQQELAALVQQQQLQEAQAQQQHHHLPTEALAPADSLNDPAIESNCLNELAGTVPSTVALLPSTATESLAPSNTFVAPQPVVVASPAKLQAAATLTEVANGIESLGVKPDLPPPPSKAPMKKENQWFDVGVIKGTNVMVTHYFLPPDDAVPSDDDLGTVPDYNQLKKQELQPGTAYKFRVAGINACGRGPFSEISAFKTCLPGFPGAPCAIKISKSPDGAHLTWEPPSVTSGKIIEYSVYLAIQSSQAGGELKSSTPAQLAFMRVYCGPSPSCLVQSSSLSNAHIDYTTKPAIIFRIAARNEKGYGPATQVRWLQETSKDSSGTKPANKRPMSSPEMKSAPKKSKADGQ

## COc1ccc(C2CC(c3cccs3)=NN2C(=O)CCl)cc1 (stereo not drawn) [compound 4]
[1]; 100 μM in situ 231
  isoTOP-ABPP reactivity A0AVT1_C347 UBA6: 20.0
[2]; 100 μM in situ 231
  isoTOP-ABPP reactivity Q96RS6_C376 NUDCD1: 1.6
[3]; 100 μM in situ 231
  isoTOP-ABPP reactivity P51649_C340 ALDH5A1: 1.0
[4]; 100 μM in situ 231
  isoTOP-ABPP reactivity Q15013_C124 MAD2L1BP: 13.0
[5]; 100 μM in situ 231
  isoTOP-ABPP reactivity Q14790_C360 CASP8: 20.0

## O=C(CCl)Nc1cccc2ncccc12 [compound 51]
[4]
  isoTOP-ABPP ratio Q15013_C124: 1.2

## CC1CCc2ccccc2N1C(=O)CCl (stereo not drawn) [compound 45]
[3]; 231
  isoTOP-ABPP ratio P51649_C340: 2.4
[4]
  isoTOP-ABPP ratio Q15013_C124: 20.0
[5]; 231
  isoTOP-ABPP ratio Q14790_C360: 20.0

## O=C(CCl)NC(=O)NC12CC3CC(CC(C3)C1)C2 [compound 12]
[2]; 200 μM, insitu, 231
  isoTOP-ABPP ratio Q96RS6_C376: 1.1
[3]; 231
  isoTOP-ABPP ratio P51649_C340: 20.0
[6]; 231
  isoTOP-ABPP ratio, cysteine P51812_C436: 1.4

## O=C(CCl)N1CCN(S(=O)(=O)c2ccccc2F)CC1 [compound 10]
[1]; 200 μM, insitu, ramos
  isoTOP-ABPP ratio, cysteine A0AVT1_C347: 20.0
[2]; 200 μM, insitu, 231
  isoTOP-ABPP ratio Q96RS6_C376: 5.7
[3]; 231
  isoTOP-ABPP ratio P51649_C340: 13.4
[3]; ramos
  isoTOP-ABPP ratio P51649_C340: 20.0
[7]; 231
  isoTOP-ABPP ratio, cysteine O00244_C12: 2.1
[8]
  isoTOP-ABPP ratio, cysteine P51610_C1872: 1.5
[5]; ramos
  isoTOP-ABPP ratio Q14790_C360: 5.8

## O=C(CCl)N1CCN(CC(=O)N2CCOCC2)CC1 [compound 29]
[2]; 200 μM, insitu, ramos
  isoTOP-ABPP ratio Q96RS6_C376: 1.3
[3]; ramos
  isoTOP-ABPP ratio P51649_C340: 1.0
[6]; ramos
  isoTOP-ABPP ratio P51812_C436: 1.3
[7]; ramos
  isoTOP-ABPP ratio O00244_C12: 1.4
[5]; ramos
  isoTOP-ABPP ratio Q14790_C360: 1.6

## CC(C)CCOCCNC(=O)CCl [compound 27]
[1]; 200 μM, insitu, 231
  isoTOP-ABPP ratio A0AVT1_C347: 0.8
[3]; 231
  isoTOP-ABPP ratio P51649_C340: 0.9
[4]
  isoTOP-ABPP ratio Q15013_C124: 1.0
[7]; 231
  isoTOP-ABPP ratio O00244_C12: 0.4
[5]; 231
  isoTOP-ABPP ratio Q14790_C360: 0.4

## O=C(CCl)N1CCC(Cc2ccccc2)CC1 [compound 9]
[1]; 200 μM, insitu, 231
  isoTOP-ABPP reactivity A0AVT1_C347 UBA6: 3.3
[2]; 200 μM, insitu, 231
  isoTOP-ABPP reactivity Q96RS6_C376 NUDCD1: 2.2
[6]; 231
  isoTOP-ABPP reactivity P51812_C436 RPS6KA3: 2.1
[7]; 231
  isoTOP-ABPP reactivity O00244_C12 ATOX1: 4.7
